In brackets after ≈: the same amount, converted by molar mass. Activity calls are given as the source filed them. No cut-off for these calls is given here. Some results are limits rather than exact numbers.

The subject of one series is Artemia. Description: Toxicity against brine shrimp. The format is organism-based. The following applies: in vivo.
Series [1] concerns Agrobacterium tumefaciens. In words: Antitumor activity against Agrobacterium tumefaciens-induced crown gall tumor in potato tubers. The format is functional.
Another series relates to A549. In words: Cytotoxicity against human A549 cells. Format: functional. The following applies: read-out: ED50 (the source's name).
The test system of a further series is MCF7. Description: Cytotoxicity against human MCF7 cells. Format: functional. The following applies: read-out: ED50 (the source's name).
For another series, the system named is HT-29. Description: Cytotoxicity against human HT-29 cells. Format: functional. The following applies: read-out: ED50 (the source's name).

For the compound `C=CC[C@]12C=C(OC)C(=O)C=C1O[C@@H](c1cc(OC)c3c(c1)OCO3)[C@H]2C`, the LC50 (usually the concentration lethal to half of the exposed cells or organisms) with Artemia came out at 162.1 ppm. Moreover, the inhibition result in series [1] was “inactive”. Also, the figures for the EC50 in the series on A549, with MCF7 and in the series on HT-29 were above 100 µg/mL, 79 µg/mL (≈ 213 µM) and 96.5 µg/mL (≈ 261 µM), respectively.
Consider `COc1cccc2c1C(=O)c1c(O)c3c(c(O)c1C2=O)C[C@@](O)(C(=O)CO)C[C@@H]3O[C@H]1C[C@H](N)[C@H](O)[C@H](C)O1` [DOXORUBICIN], for which the LC50 in the series with Artemia turned out to be 4.05 ppm. The “inhibition (INH)” value in series [1] is listed as 68.8%. The EC50 came to 0.0292 µg/mL (≈ 0.0537 µM) with A549, 0.115 µg/mL (≈ 0.212 µM) in the series with MCF7 and 0.0344 µg/mL (≈ 0.0633 µM) in the series with HT-29.
Taken in the same sequence, the figures for `C=CC[C@@]12C[C@@H](OC)C(=O)C=C1O[C@@H](c1cc(OC)c3c(c1)OCO3)[C@H]2C` [DYSODANTHIN A] were 47.53 ppm, 32.2%, 4.23 µg/mL (≈ 11.4 µM), 5.51 µg/mL (≈ 14.8 µM) and 2.39 µg/mL (≈ 6.42 µM).
For `C=CC[C@@]12C[C@@H](OC)C(=O)C=C1O[C@@H](c1cc(OC)c(OC)c(OC)c1)[C@H]2C` [DYSODANTHIN B], the 50% lethal concentration (LC50) in the series on Artemia amounted to 334.2 ppm. For the same compound, the “inhibition (INH)” value in series [1] amounted to 52%. Further, the EC50 with A549 came to 3.68 µg/mL (≈ 9.47 µM); in the series with MCF7 it was 4.09 µg/mL (≈ 10.5 µM); in the series on HT-29, 2.76 µg/mL (≈ 7.1 µM).
In the series with Artemia, `C=CC[C@]1([C@H](C)[C@@H](OC(C)=O)c2cc(OC)c(OC)c(OC)c2)C[C@@H](OC)C=CC1=O` [MEGAPHONE ACETATE] had an LC50 of 253.6 ppm. In series [1], the “inhibition (INH)” value is listed as 48.3%. Besides, the EC50 with A549 was determined as 2.59 µg/mL; with MCF7 it was 3.66 µg/mL; in the series on HT-29, 0.552 µg/mL.

Source of the values: ChEMBL document CHEMBL1158980, “Bioactive neolignans from Endlicheria dysodantha” (J Nat Prod, 1991).
